Source: patent US20250230193A1, “CYCLIC COMPOUND HAVING SELECTIVE KRAS INHIBITORY EFFECT ON HRAS AND NRAS” (CHUGAI SEIYAKU KABUSHIKI KAISHA, priority 2022, published 2025)

Experiments:
[1] = target: GDP-bound HRAS wild-type protein (Homo sapiens, UniProt P01112); test: Binding to HRAS by surface plasmon resonance (SPR), Single Cycle Kinetics; conditions: KD ratio HRAS/KRAS, SPR
[2] = target: GDP-bound NRAS wild-type protein (Homo sapiens, UniProt P01111); test: Binding to NRAS by surface plasmon resonance (SPR), Single Cycle Kinetics; conditions: KD ratio NRAS/KRAS, SPR
Chain of GDP-bound NRAS wild-type protein (P01111 whole entry): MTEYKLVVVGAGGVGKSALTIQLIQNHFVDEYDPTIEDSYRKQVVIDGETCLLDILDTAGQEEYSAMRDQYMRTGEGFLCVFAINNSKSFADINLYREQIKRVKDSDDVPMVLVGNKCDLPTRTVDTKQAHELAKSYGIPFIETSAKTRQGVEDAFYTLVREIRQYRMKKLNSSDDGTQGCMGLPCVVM

Chain of GDP-bound HRAS wild-type protein (P01112 whole entry): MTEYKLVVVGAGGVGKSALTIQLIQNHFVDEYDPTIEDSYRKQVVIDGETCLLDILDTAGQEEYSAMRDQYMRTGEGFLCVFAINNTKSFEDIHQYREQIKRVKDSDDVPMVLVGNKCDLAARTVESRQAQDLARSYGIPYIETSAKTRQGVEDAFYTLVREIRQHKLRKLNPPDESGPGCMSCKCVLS

SMILES	HRAS/KRAS (ratio of KD value with respect to GDP-bound HRAS wild-type protein to KD value with respect to KRAS) [1]	NRAS/KRAS (ratio of KD value with respect to GDP-bound NRAS wild-type protein to KD value with respect to KRAS) [2]
CC[C@H](C)[C@@H]1NC(=O)[C@H](CC(C)C)N(C)C(=O)C[C@@H](C(=O)N2C3CCC2COC3)N(C)C(=O)[C@H](C2CCCC2)N(C)C(=O)C2(CCCC2)NC(=O)[C@@H]2CCCN2C(=O)[C@H](CCc2cc(F)c(C(F)(F)F)c(F)c2)NC(=O)CN(C)C(=O)[C@H](Cc2ccc(C(F)(F)F)cc2)N2CCCC[C@@H](C2=O)N(C)C(=O)CN(C)C1=O [PP0573]	B (a compound having 3 or more and less than 10 is denoted as B)	B (a compound having 3 or more and less than 10 is denoted as B)
CC[C@H](C)[C@@H]1NC(=O)[C@H](CC(C)C)N(C)C(=O)C[C@@H](C(=O)N(C)C)N(C)C(=O)[C@H](C2CCCC2)N(C)C(=O)C2(CCC2)NC(=O)[C@@H]2CCCN2C(=O)[C@H](CCc2cc(F)c(C(F)(F)F)c(F)c2)NC(=O)CN(C)C(=O)[C@H](Cc2ccc(C(F)(F)F)cc2)N2CCCC[C@@H](C2=O)N(C)C(=O)CN(C)C1=O [PP0574]	B (a compound having 3 or more and less than 10 is denoted as B)	C (A compound having a KD ratio of 0.1 or more and less than 3 is denoted as C)
CC[C@H](C)[C@@H]1NC(=O)[C@H](CC(C)C)N(C)C(=O)C[C@@H](C(=O)N2CCOCC2)N(C)C(=O)[C@H](C2CCCC2)N(C)C(=O)C2(CCC2)NC(=O)[C@@H]2CC(F)(F)CN2C(=O)[C@H](CCc2cc(F)c(C(F)(F)F)c(F)c2)NC(=O)CN(C)C(=O)[C@H](Cc2ccc(C(F)(F)F)cc2)N2CCCC[C@@H](C2=O)N(C)C(=O)CN(C)C1=O [PP0575]	B (a compound having 3 or more and less than 10 is denoted as B)	B (a compound having 3 or more and less than 10 is denoted as B)
CC[C@H](C)[C@@H]1NC(=O)[C@H](CC(C)C)N(C)C(=O)C[C@@H](C(=O)N(C)C)N(C)C(=O)[C@H](C2CCCC2)N(C)C(=O)C2(CCCC2)NC(=O)[C@@H]2CC(F)(F)CN2C(=O)[C@H](CCc2cc(F)c(C(F)(F)F)c(F)c2)NC(=O)CN(C)C(=O)[C@H](Cc2ccc(C(F)(F)F)cc2)N2CCCC[C@@H](C2=O)N(C)C(=O)CN(C)C1=O [PP0576]	B (a compound having 3 or more and less than 10 is denoted as B)	C (A compound having a KD ratio of 0.1 or more and less than 3 is denoted as C)
CC[C@H](C)[C@@H]1NC(=O)[C@H](CC(C)C)N(C)C(=O)C[C@@H](C(=O)N(C)C)N(C)C(=O)[C@H](C2CCCC2)N(C)C(=O)C2(CCC2)NC(=O)[C@@H]2CC(F)(F)CN2C(=O)[C@H](CCc2cc(F)c(C(F)(F)F)c(F)c2)NC(=O)CN(C)C(=O)[C@H](Cc2ccc(C(F)(F)F)cc2)N2CCCC[C@@H](C2=O)N(C)C(=O)CN(C)C1=O [PP0577]	C (A compound having a KD ratio of 0.1 or more and less than 3 is denoted as C)	C (A compound having a KD ratio of 0.1 or more and less than 3 is denoted as C)
CCO[C@@H]1C[C@H]2C(=O)NC3(CCC3)C(=O)N(C)[C@@H](C3CCCC3)C(=O)N(C)[C@H](C(=O)N3CCOCC3)CC(=O)N(C)[C@@H](CC(C)C)C(=O)N[C@@H]([C@@H](C)CC)C(=O)N(C)CC(=O)N(C)[C@H]3CCCCN(C3=O)[C@@H](Cc3ccc(C(F)(F)F)cc3)C(=O)N(C)CC(=O)N[C@@H](CCc3cc(F)c(C(F)(F)F)c(F)c3)C(=O)N2C1 [PP0578]	B (a compound having 3 or more and less than 10 is denoted as B)	B (a compound having 3 or more and less than 10 is denoted as B)
CCO[C@@H]1C[C@H]2C(=O)NC3(CCCC3)C(=O)N(C)[C@@H](C3CCCC3)C(=O)N(C)[C@H](C(=O)N(C)C)CC(=O)N(C)[C@@H](CC(C)C)C(=O)N[C@@H]([C@@H](C)CC)C(=O)N(C)CC(=O)N(C)[C@H]3CCCCN(C3=O)[C@@H](Cc3ccc(C(F)(F)F)cc3)C(=O)N(C)CC(=O)N[C@@H](CCc3cc(F)c(C(F)(F)F)c(F)c3)C(=O)N2C1 [PP0579]	B (a compound having 3 or more and less than 10 is denoted as B)	C (A compound having a KD ratio of 0.1 or more and less than 3 is denoted as C)
CCO[C@@H]1C[C@H]2C(=O)NC3(CCC3)C(=O)N(C)[C@@H](C3CCCC3)C(=O)N(C)[C@H](C(=O)N(C)C)CC(=O)N(C)[C@@H](CC(C)C)C(=O)N[C@@H]([C@@H](C)CC)C(=O)N(C)CC(=O)N(C)[C@H]3CCCCN(C3=O)[C@@H](Cc3ccc(C(F)(F)F)cc3)C(=O)N(C)CC(=O)N[C@@H](CCc3cc(F)c(C(F)(F)F)c(F)c3)C(=O)N2C1 [PP0580]	C (A compound having a KD ratio of 0.1 or more and less than 3 is denoted as C)	C (A compound having a KD ratio of 0.1 or more and less than 3 is denoted as C)
CC[C@H](C)[C@@H]1NC(=O)[C@H](C)N(C)C(=O)C[C@@H](C(=O)N(C)C)N(C)C(=O)[C@H](C2CCCC2)N(C)C(=O)C2(CCC2)NC(=O)[C@@H]2CCCN2C(=O)[C@H](CCc2cc(F)c(C(F)(F)F)c(F)c2)NC(=O)CN(C)C(=O)[C@H](Cc2ccc(C(F)(F)F)cc2)N2CCCC[C@@H](C2=O)N(C)C(=O)CN(C)C1=O [PP0581]	B (a compound having 3 or more and less than 10 is denoted as B)	C (A compound having a KD ratio of 0.1 or more and less than 3 is denoted as C)
CC[C@H](C)[C@@H]1NC(=O)[C@H](C)N(C)C(=O)C[C@@H](C(=O)N2CCOCC2)N(C)C(=O)[C@H](C2CCCC2)N(C)C(=O)C2(CCC2)NC(=O)[C@@H]2CC(F)(F)CN2C(=O)[C@H](CCc2cc(F)c(C(F)(F)F)c(F)c2)NC(=O)CN(C)C(=O)[C@H](Cc2ccc(C(F)(F)F)cc2)N2CCCC[C@@H](C2=O)N(C)C(=O)CN(C)C1=O [PP0582]	B (a compound having 3 or more and less than 10 is denoted as B)	C (A compound having a KD ratio of 0.1 or more and less than 3 is denoted as C)
CC[C@H](C)[C@@H]1NC(=O)[C@H](C)N(C)C(=O)C[C@@H](C(=O)N(C)C)N(C)C(=O)[C@H](C2CCCC2)N(C)C(=O)C2(CCCC2)NC(=O)[C@@H]2CC(F)(F)CN2C(=O)[C@H](CCc2cc(F)c(C(F)(F)F)c(F)c2)NC(=O)CN(C)C(=O)[C@H](Cc2ccc(C(F)(F)F)cc2)N2CCCC[C@@H](C2=O)N(C)C(=O)CN(C)C1=O [PP0583]	C (A compound having a KD ratio of 0.1 or more and less than 3 is denoted as C)	C (A compound having a KD ratio of 0.1 or more and less than 3 is denoted as C)
CC[C@H](C)[C@@H]1NC(=O)[C@H](C)N(C)C(=O)C[C@@H](C(=O)N(C)C)N(C)C(=O)[C@H](C2CCCC2)N(C)C(=O)C2(CCC2)NC(=O)[C@@H]2CC(F)(F)CN2C(=O)[C@H](CCc2cc(F)c(C(F)(F)F)c(F)c2)NC(=O)CN(C)C(=O)[C@H](Cc2ccc(C(F)(F)F)cc2)N2CCCC[C@@H](C2=O)N(C)C(=O)CN(C)C1=O [PP0584]	C (A compound having a KD ratio of 0.1 or more and less than 3 is denoted as C)	C (A compound having a KD ratio of 0.1 or more and less than 3 is denoted as C)
CCO[C@@H]1C[C@H]2C(=O)NC3(CCC3)C(=O)N(C)[C@@H](C3CCCC3)C(=O)N(C)[C@H](C(=O)N3CCOCC3)CC(=O)N(C)[C@@H](C)C(=O)N[C@@H]([C@@H](C)CC)C(=O)N(C)CC(=O)N(C)[C@H]3CCCCN(C3=O)[C@@H](Cc3ccc(C(F)(F)F)cc3)C(=O)N(C)CC(=O)N[C@@H](CCc3cc(F)c(C(F)(F)F)c(F)c3)C(=O)N2C1 [PP0585]	B (a compound having 3 or more and less than 10 is denoted as B)	B (a compound having 3 or more and less than 10 is denoted as B)
CCO[C@@H]1C[C@H]2C(=O)NC3(CCCC3)C(=O)N(C)[C@@H](C3CCCC3)C(=O)N(C)[C@H](C(=O)N(C)C)CC(=O)N(C)[C@@H](C)C(=O)N[C@@H]([C@@H](C)CC)C(=O)N(C)CC(=O)N(C)[C@H]3CCCCN(C3=O)[C@@H](Cc3ccc(C(F)(F)F)cc3)C(=O)N(C)CC(=O)N[C@@H](CCc3cc(F)c(C(F)(F)F)c(F)c3)C(=O)N2C1 [PP0586]	B (a compound having 3 or more and less than 10 is denoted as B)	C (A compound having a KD ratio of 0.1 or more and less than 3 is denoted as C)
CCO[C@@H]1C[C@H]2C(=O)NC3(CCC3)C(=O)N(C)[C@@H](C3CCCC3)C(=O)N(C)[C@H](C(=O)N(C)C)CC(=O)N(C)[C@@H](C)C(=O)N[C@@H]([C@@H](C)CC)C(=O)N(C)CC(=O)N(C)[C@H]3CCCCN(C3=O)[C@@H](Cc3ccc(C(F)(F)F)cc3)C(=O)N(C)CC(=O)N[C@@H](CCc3cc(F)c(C(F)(F)F)c(F)c3)C(=O)N2C1 [PP0587]	C (A compound having a KD ratio of 0.1 or more and less than 3 is denoted as C)	C (A compound having a KD ratio of 0.1 or more and less than 3 is denoted as C)
